Laboratory results: patent US20050048603A1 (priority 2001, published 2005)

Columns and labels:
[1] = target: mycoAC (adenylyl cyclase Rv1625c) (Mycobacterium tuberculosis, UniProt P9WQ35); assay type: biochemical

Molecule | acceptance as a substrate [1] | AC activity of the bacterial membrane preparation (P9WQ35)
Mn-GTP | not accepted as a substrate | –
mycoAC holoenzyme expressed in E. coli (N-terminal His6-tag) (protein) MRGSHHHHHHGSMAARKCGAPPIAADGSTRRPDCVTAVRTQARAPTQHYAESVARRQRVLTITAWLAVVVTGSFALMQLATGAGGWYIALINVFTAVTFAIVPLLHRFGGLVAPLTFIGTAYVAIFAIGWDVGTDAGAQFFFLVAAALVVLLVGIEHTALAVGLAAVAAGLVIALEFLVPPDTGLQPPWAMSVSFVLTTVSACGVAVATVWFALRDTARAEAVMEAEHDRSEALLANMLPASIAERLKEPERNIIADKYDEASVLFADIVGFTERASSTAPADLVRFLDRLYSAFDELVDQHGLEKIKVSGDSYMVVSGVPRPRPDHTQALADFALDMTNVAAQLKDPRGNPVPLRVGLATGPVVAGVVGSRRFFYDVWGDAVNVASRMESTDSVGQIQVPDEVYERLKDDFVLRERGHINVKGKGVMRTWYLIGRKVAADPGEVRGAEPRTAGV | – | 19 nmol cAMP/mg·min^-1
